Data on 1 substance can be found in publication PMC6081452, “Downstream Products are Potent Inhibitors of the Heparan Sulfate 2-O-Sulfotransferase” (Scientific Reports, 2018).

Assay [1] addresses T1, non-glyc-HS2ST (non-glycosylated chicken HS2ST), WT (Gallus gallus, UniProt Q76KB1).
T1 construct: made in house; host or cells: E. coli Origami B (DE3)
T1 sequence (Q76KB1 69-356 limits assumed): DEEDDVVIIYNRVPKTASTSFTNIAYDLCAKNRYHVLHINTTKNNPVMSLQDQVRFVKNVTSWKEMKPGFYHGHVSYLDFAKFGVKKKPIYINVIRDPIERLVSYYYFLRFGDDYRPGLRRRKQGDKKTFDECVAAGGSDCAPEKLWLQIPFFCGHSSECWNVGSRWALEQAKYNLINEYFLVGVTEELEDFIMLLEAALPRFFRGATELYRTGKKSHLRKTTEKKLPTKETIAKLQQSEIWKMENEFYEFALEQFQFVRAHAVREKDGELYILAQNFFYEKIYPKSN
Description: BLI equilibrium binding, non-glyc-HS2ST WT. Conditions: BLI saturation binding curves, biotin-PEG4-linked hexasaccharide on sensor, n = 3, ± standard error of fit; — = response too weak to fit. From the text: (§1) HS-protein binding studies often utilize biologically-derived oligosaccharides of heterogeneous length and sulfation[34],[35]; however, the synthesis of oligosaccharides with defined length and specific sulfation patterns has recently become possible. We employed biolayer interferometry (BLI) to determine equilibrium surface binding constants (KD) for HS2ST with synthetic HS hexasaccharides (Fig. 1 and Supplementary Table 1). The HS compounds were attached to the BLI biosensor surface to conserve sample and to ensure a significant signal upon protein binding. The HS compounds contained a biotinylated PEG4 linker at the reducing terminus, enhancing the likelihood of a consistent presentation of the linear glycan on the sensor surface, in contrast to immobilizations via intra-chain modifications.
Binding constants were collected for two isoforms of the enzyme; a glycosylated human variant (glyc-HS2ST) expressed in mammalian cell lines, and a highly homologous (96% identity) non-glycosylated chicken isoform expressed in E. coli (non-glyc-HS2ST). […] Thus, the enhanced ligand affinity seen in HS2ST was unexpected and may relate to the specific position of the glycosylation site (N108)[41].
The chicken HS2ST-Maltose Binding Protein (MBP) fusion protein was expressed and purified according to previous studies. The fusion protein was transformed into E. coli Origami B (DE3) cells, cultured at 37 °C until OD600 reached 0.5, then induced with isopropyl-β-D-thiogalactopyranoside and allowed to grow overnight at 20 °C. Cells were sonicated, followed by a two-step purification procedure. Whole-cell supernatant was passed through an amylose column with Tris buffer (25 mM Tris, 500 mM NaCl, pH 7.5). An elution buffer consisted of Tris Buffer with 40 mM Maltose. The amylose column eluent was concentrated and loaded on a Superdex 200 Increase 10/300 GL with PBS buffer (10 mM sodium phosphate, 150 mM NaCl, pH 7.8) to separate trimeric protein from aggregate and independent MBP (Supplementary Fig. 4). All reported mutations formed homotrimeric complexes according to the SEC profiles, including the negative control (NC = R189A/R80E/R184E). Protein concentration was assessed via UV at 280 nm (MW of trimer ~210 KDa, extinction coefficient ~119,000 M^−1 cm^−1 according to ExPASy ProtParam webtool[56]). The trimeric protein preparation was adjusted to 5% glycerol and stored at −20 °C until use. Additional non-glyc-HS2ST constructs were created with the Q5® Mutagenesis kit (New England Biolabs Inc.; cat. # E0554S) and sequenced at the Georgia Genomics Facility at the University of Georgia.
The Octet® RED96 system (FortéBio Inc.) was employed to detect the affinity of the enzymes for specific HS targets. Due to the small size of the glycan and the deep HS2ST binding cavity, the glycan and protein were treated as ligand and analyte, respectively. Varyingly sulfated HS fragments conjugated to biotin linkers were purchased from Glycan Therapeutics Inc. with purities greater than 93% according to HPLC (sequences located in Supplementary Table 1). The glycans were immobilized onto streptavidin (SA) labeled biosensors (FortéBio; cat. #18–5019) at 0.5 µg/mL. Experiments were performed at 25 °C in PBS Buffer (10 mM sodium phosphate, 150 mM NaCl, pH 7.8) with a final concentration of 1X Pall Kinetics buffer (FortéBio Inc; cat. #18–1092). Fresh biosensors and protein samples were used for each measurement (no regeneration step). […]

The target in assay [2] is T2, glyc-HS2ST (glycosylated human HS2ST), WT (Homo sapiens, UniProt Q7LGA3).
T2 construct: the human HS2ST catalytic domain region comprising of 328 amino acid residues; His8 (N, cleaved yes); AviTag (N, cleaved yes); superfolder GFP (N, cleaved yes); made in house; host or cells: HEK293-F (transient transfection, secreted)
T2 sequence (Q7LGA3 29-356 limits assumed): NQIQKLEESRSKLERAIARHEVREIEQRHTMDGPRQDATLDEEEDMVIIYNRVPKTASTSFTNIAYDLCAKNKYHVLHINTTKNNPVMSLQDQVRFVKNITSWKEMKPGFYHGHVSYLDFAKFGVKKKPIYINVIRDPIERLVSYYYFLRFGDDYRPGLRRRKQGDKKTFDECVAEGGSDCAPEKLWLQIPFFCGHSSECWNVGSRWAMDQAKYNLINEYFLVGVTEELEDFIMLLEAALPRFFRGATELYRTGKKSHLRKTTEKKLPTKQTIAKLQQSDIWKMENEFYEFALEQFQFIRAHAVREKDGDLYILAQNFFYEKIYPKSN
Description: BLI equilibrium binding, glyc-HS2ST WT. Conditions: BLI saturation binding curves, biotin-PEG4-linked hexasaccharide immobilised on sensor, n = 3, ± standard error of fit, 25 °C, PBS pH 7.8.
Excerpt: as §1, with “modifications. […]” for “modifications.”
An expression construct was generated encoding the truncated catalytic domain of human HS2ST as an NH2-terminal fusion protein in the pGEn2 expression vector essentially as described in prior studies. […] The recombinant human HS2ST was expressed as a soluble secreted protein by transient transfection of suspension culture HEK293-F cells (FreeStyle^TM 293-Fcells, Thermo Fisher Scientific, Waltham MA) maintained at 0.5–3.0 × 10^6 cells/ml in a humidified CO2 platform shaker incubator at 37 °C with 55% humidity. […]

“Also recorded” adds a separate entry of the source.

As for “GlcNS-GlcA-GlcNS-IdoA-GlcNS-GlcA~ [Compound 1]”, the “Equilibrium KD, WT non-glyc-HS2ST” value in assay [1] is reported as “too weak to measure; also recorded: insufficient for KD determination”. The “Equilibrium KD, WT glyc-HS2ST” value in assay [2] was “too weak to measure”.
